Assay results as given in patent US10167262B2, “Herbicidal substituted 3-arylpyrazoles” (FMC CORPORATION, priority 2014, dated 2019).

How the values were obtained:
Assay in all cases: Test C pre-/postemergence greenhouse test, plant response rating 0-100
Assay type in all cases: in vivo
[1] = tested on: Italian ryegrass (Lolium multiflorum)
Summary of the method: (§1)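 Plants were treated either at seeding (soil of loam and sand) or as 2–18 cm seedlings in a sphagnum peat mix, using test chemicals in a surfactant-containing non-phytotoxic solvent. Visual assessment relative to controls followed 13–15 days later.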

[2] = tested on: blackgrass (Alopecurus myosuroides); conditions: Postemergence; for Plant response rating, Blackgrass: scale 0 to 100
Summary of the method: as §1

[3] = tested on: corn (Zea mays); conditions: Postemergence; for Plant response rating, Corn: scale 0 to 100
Summary of the method: as §1

[4] = tested on: galium (catchweed bedstraw, Galium aparine); conditions: Postemergence; for Plant response rating, Galium: scale 0 to 100
Summary of the method: as §1

[5] = tested on: lambsquarters (Chenopodium album); conditions: Postemergence; for Plant response rating, Lambsquarters: scale 0 to 100
Summary of the method: as §1

[6] = tested on: large (Lg) crabgrass (Digitaria sanguinalis); conditions: Postemergence; for Plant response rating, Crabgrass, Large: scale 0 to 100
Summary of the method: as §1

[7] = tested on: morningglory (Ipomoea coccinea); conditions: Postemergence; for Plant response rating, Morningglory: scale 0 to 100
Summary of the method: as §1

[8] = tested on: pigweed (Amaranthus retroflexus); conditions: Postemergence; for Plant response rating, Pigweed: scale 0 to 100
Summary of the method: as §1

[9] = tested on: ragweed (common ragweed, Ambrosia elatior)
Summary of the method: as §1

[10] = tested on: soybean (Glycine max)
Summary of the method: as §1

[11] = tested on: velvetleaf (Abutilon theophrasti)
Summary of the method: as §1

[12] = tested on: yellow nutsedge (Cyperus esculentus); conditions: Postemergence; for Plant response rating, Nutsedge, Yellow: scale 0 to 100
Summary of the method: as §1

[13] = Postemergence, 250 g ai/ha, scale 0 to 100
[14] = Postemergence, 500 g ai/ha, scale 0 to 100
[15] = Preemergence, 0 to 100 scale (0 no effect, 100 complete control), rate 500 g ai/ha per head r3, sub-head of this section not shown

## O=C(c1ccccc1)c1cn(S(=O)(=O)C(F)(F)F)nc1-c1cc(Cl)cc(Cl)c1 [Compound 2]
[1]; Postemergence, 62 g ai/ha
  Plant response rating (0 to 100), Ryegrass, Italian: 0
[1]; Postemergence, 125 g ai/ha
  Plant response rating (0 to 100), Ryegrass, Italian: 0
[1]; [13]
  Plant response rating, Ryegrass, Italian: 0
[1]; [14]
  Plant response rating, Ryegrass, Italian: 0
[1]; [15]
  Plant response rating, Ryegrass, Italian: 0
[2]; 62 g ai/ha
  Plant response rating (0 to 100), Blackgrass: 0
[2]; 125 g ai/ha
  Plant response rating, Blackgrass: 0
[2]; 250 g ai/ha
  Plant response rating, Blackgrass: 0
[2]; 500 g ai/ha
  Plant response rating, Blackgrass: 0
[3]; 62 g ai/ha
  Plant response rating (0 to 100), Corn: 0
[3]; 125 g ai/ha
  Plant response rating (0 to 100), Corn: 0
[3]; 250 g ai/ha
  Plant response rating, Corn: 0
[3]; 500 g ai/ha
  Plant response rating, Corn: 0
[4]; 62 g ai/ha
  Plant response rating (0 to 100), Galium: 0
[4]; 125 g ai/ha
  Plant response rating (0 to 100), Galium: 0
[4]; 250 g ai/ha
  Plant response rating, Galium: 50
[4]; 500 g ai/ha
  Plant response rating, Galium: 50
[5]; 62 g ai/ha
  Plant response rating (0 to 100), Lambsquarters: 85
[5]; 125 g ai/ha
  Plant response rating (0 to 100), Lambsquarters: 85
[5]; 250 g ai/ha
  Plant response rating, Lambsquarters: 85
[5]; 500 g ai/ha
  Plant response rating, Lambsquarters: 90
[6]; 62 g ai/ha
  Plant response rating (0 to 100), Crabgrass, Large: 0
[6]; 125 g ai/ha
  Plant response rating (0 to 100), Crabgrass, Large: 0
[6]; 250 g ai/ha
  Plant response rating, Crabgrass, Large: 0
[6]; 500 g ai/ha
  Plant response rating, Crabgrass, Large: 0
[7]; 62 g ai/ha
  Plant response rating (0 to 100), Morningglory: 0
[7]; 125 g ai/ha
  Plant response rating (0 to 100), Morningglory: 0
[7]; 250 g ai/ha
  Plant response rating, Morningglory: 0
[7]; 500 g ai/ha
  Plant response rating, Morningglory: 10
[8]; 62 g ai/ha
  Plant response rating (0 to 100), Pigweed: 90
[8]; 125 g ai/ha
  Plant response rating (0 to 100), Pigweed: 90
[8]; 250 g ai/ha
  Plant response rating, Pigweed: 98
[8]; 500 g ai/ha
  Plant response rating, Pigweed: 100
[9]; Postemergence, 62 g ai/ha
  Plant response rating (0 to 100), Ragweed: 40
[9]; Postemergence, 125 g ai/ha
  Plant response rating (0 to 100), Ragweed: 60
[9]; [13]
  Plant response rating, Ragweed: 60
[9]; [14]
  Plant response rating, Ragweed: 70
[9]; [15]
  Plant response rating, Ragweed: 0
[10]; Postemergence, 62 g ai/ha
  Plant response rating (0 to 100), Soybean: 0
[10]; Postemergence, 125 g ai/ha
  Plant response rating (0 to 100), Soybean: 0
[10]; [13]
  Plant response rating, Soybean: 0
[10]; [14]
  Plant response rating, Soybean: 5
[10]; [15]
  Plant response rating, Soybean: 0
[11]; Postemergence, 62 g ai/ha
  Plant response rating (0 to 100), Velvetleaf: 75
[11]; Postemergence, 125 g ai/ha
  Plant response rating (0 to 100), Velvetleaf: 75
[11]; [13]
  Plant response rating, Velvetleaf: 80
[11]; [14]
  Plant response rating, Velvetleaf: 85
[11]; [15]
  Plant response rating, Velvetleaf: 35
[12]; 62 g ai/ha
  Plant response rating (0 to 100), Nutsedge, Yellow: 0
[12]; 125 g ai/ha
  Plant response rating (0 to 100), Nutsedge, Yellow: 0
[12]; 250 g ai/ha
  Plant response rating, Nutsedge, Yellow: 0
[12]; 500 g ai/ha
  Plant response rating, Nutsedge, Yellow: 0
